# Data: patent publication US20120244071A1, “FTY720 HALOGENATED DERIVATIVES” (Novartis AG, priority 2009, published 2012)
# Structures can show the parent of a compound that is named as a salt.
# Key:
# S1P1 [1] = target: T1, S1P1 (Homo sapiens, UniProt P21453); assay: GTPγS binding assay using S1P receptor/CHO membranes preparation; assay type: biochemical; parameters: expressed in transfected cells; membrane preparation; conditions: [35S]GTPγS, CHO membranes, SPA
# Method: (§1) GTPγS Binding Assay Using S1P Receptor/CHO Membranes Preparation
# (§2) The assay is based on the SPA technology (Amersham) and run in a 96 well format. Membranes are prepared from CHO cells stably expressing the S1P receptor of interest. Aliquots are stored at −80° C. Membranes (5-10 μg/well) resuspended in assay buffer (20 mM HEPES, pH7.4, 100 mM NaCl, 10 mM MgCl2 and 0.1% fat free BSA) containing 25 μg/mL Saponin and 10 μM GDP are mixed WGA-coated SPA beads (final conc. 1 mg/well). Ligand and [^35S]GTPγS (1250 Ci/mmol, final concentration 0.2 nM) are added and the plate sealed. After incubation at room temperature for 120 minutes under constant shaking the plates are centrifuged for 10 minutes at 1000×g to pellet the SPA beads. Then the plates are measured in a TopCount NXT instrument (Packard) and the data analyzed using GraphPad PRISM software.
# Target sequence in this assay (P21453 whole entry): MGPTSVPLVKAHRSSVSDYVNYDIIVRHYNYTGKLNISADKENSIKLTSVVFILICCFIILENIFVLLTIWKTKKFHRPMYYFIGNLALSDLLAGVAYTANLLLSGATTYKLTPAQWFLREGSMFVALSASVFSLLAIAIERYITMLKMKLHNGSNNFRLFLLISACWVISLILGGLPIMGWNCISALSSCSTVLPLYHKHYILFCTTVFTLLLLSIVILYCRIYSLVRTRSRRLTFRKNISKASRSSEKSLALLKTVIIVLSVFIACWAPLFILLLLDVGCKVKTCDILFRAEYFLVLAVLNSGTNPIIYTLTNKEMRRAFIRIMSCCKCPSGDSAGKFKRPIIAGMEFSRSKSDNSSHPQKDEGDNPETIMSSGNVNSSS
# S1P4 [2] = target: T2, S1P4 (Homo sapiens, UniProt O95977); assay: as above; assay type: biochemical; parameters: expressed in transfected cells; membrane preparation; conditions: [35S]GTPγS, CHO membranes, SPA
# T2 sequence (O95977 1-384): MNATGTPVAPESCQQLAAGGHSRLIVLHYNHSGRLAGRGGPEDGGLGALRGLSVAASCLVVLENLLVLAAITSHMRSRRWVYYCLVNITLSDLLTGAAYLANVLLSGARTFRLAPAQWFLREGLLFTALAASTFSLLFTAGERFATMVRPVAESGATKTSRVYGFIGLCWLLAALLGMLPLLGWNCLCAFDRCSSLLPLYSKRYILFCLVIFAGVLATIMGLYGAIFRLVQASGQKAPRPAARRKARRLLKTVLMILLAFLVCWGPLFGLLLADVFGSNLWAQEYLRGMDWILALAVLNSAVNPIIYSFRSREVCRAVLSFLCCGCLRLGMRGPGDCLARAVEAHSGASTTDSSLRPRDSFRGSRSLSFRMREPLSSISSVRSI
# Method: as §1, §2
# S1P5 [3] = target: T3, S1P5 (Homo sapiens, UniProt Q9H228); assay: as above; assay type: biochemical; parameters: expressed in transfected cells; membrane preparation; conditions: [35S]GTPγS, CHO membranes, SPA
# Method: as §1, §2
# Target sequence in this assay (Q9H228 whole entry): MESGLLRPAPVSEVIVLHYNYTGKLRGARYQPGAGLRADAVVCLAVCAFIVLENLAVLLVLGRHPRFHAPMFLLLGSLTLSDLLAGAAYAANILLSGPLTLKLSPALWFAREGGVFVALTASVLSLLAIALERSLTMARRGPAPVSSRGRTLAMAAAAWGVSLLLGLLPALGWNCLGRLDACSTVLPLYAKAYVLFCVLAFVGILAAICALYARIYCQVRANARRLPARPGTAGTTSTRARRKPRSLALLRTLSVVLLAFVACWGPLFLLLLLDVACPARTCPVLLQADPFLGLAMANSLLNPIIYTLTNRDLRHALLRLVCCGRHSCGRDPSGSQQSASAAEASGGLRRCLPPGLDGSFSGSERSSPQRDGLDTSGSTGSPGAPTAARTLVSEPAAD
# S1P3 [4] = target: T4, S1P3 (Homo sapiens, UniProt Q99500); assay: as above; assay type: biochemical; parameters: expressed in transfected cells; membrane preparation; conditions: [35S]GTPγS, CHO membranes, SPA
# Method: as §1, §2
# Target sequence in this assay (Q99500 whole entry): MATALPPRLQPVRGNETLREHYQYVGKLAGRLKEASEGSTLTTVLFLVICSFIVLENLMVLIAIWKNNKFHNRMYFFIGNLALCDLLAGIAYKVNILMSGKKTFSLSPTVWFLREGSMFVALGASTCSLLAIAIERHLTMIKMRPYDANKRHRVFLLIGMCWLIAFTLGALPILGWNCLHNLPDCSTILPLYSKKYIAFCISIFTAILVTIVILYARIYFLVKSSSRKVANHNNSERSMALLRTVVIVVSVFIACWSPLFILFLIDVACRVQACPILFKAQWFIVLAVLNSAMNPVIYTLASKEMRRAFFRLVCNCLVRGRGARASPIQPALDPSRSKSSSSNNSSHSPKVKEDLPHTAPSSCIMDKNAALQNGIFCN
# [5] = tested on: peripheral blood lymphocytes; assay: Blood Lymphocyte Depletion assay in Lewis rats; assay type: in vivo; conditions: intravenous
# Method: Percent of Lymphocyte Depletion in Lewis Rats
# The lymphocyte homing property may be measured in following Blood Lymphocyte Depletion assay:
# A S1P receptor agonist or the vehicle is administered intravenously to rats. […] In this assay, the S1P receptor agonist depletes peripheral blood lymphocytes, e.g. by 50%, when administered at a dose of e.g. <20 mg/kg. Preferred S1P receptor agonists are further compounds which in addition to their S1P binding properties internalize/desensitize S1P receptors, thereby antagonizing inflammatory processes driven by lysophospholipids, including i.e. sphingosine 1-phosphate (S1P), sphingophosphorylcholine (SPC), lysophosphatidic acid (LPA), and others, on vasculature cells, e.g. endothelial cells. The internalization/desensitization capacity of compounds will be determined using CHO cells transfected with a human myc-tagged S1P receptor.
# S1P1 [6] = target: T1, S1P1; conditions: background statement; cited from earlier work
# Target sequence in this assay (P21453 whole entry, species assumed): as the sequence (P21453 whole entry) above
# S1P2 = S1P2 (Homo sapiens, UniProt O95136); conditions: background statement; cited from earlier work
# S1P2, sequence (O95136 whole entry, species assumed): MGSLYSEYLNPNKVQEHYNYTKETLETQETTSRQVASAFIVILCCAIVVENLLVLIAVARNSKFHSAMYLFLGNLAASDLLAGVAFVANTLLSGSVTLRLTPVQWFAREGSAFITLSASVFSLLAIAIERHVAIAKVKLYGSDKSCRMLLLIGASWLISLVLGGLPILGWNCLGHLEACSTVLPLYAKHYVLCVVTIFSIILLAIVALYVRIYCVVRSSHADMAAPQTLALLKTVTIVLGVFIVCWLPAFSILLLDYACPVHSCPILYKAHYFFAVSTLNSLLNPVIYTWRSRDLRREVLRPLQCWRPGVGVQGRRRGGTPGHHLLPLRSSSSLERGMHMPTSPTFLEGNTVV
# S1P3 [7] = target: T4, S1P3; conditions: background statement, about 10-fold lower affinity; cited from earlier work
# Target sequence in this assay (Q99500 whole entry, species assumed): as the sequence (Q99500 whole entry) above
# S1P5 [8] = target: T3, S1P5; conditions: background statement; cited from earlier work
# Target sequence in this assay (Q9H228 whole entry, species assumed): as the sequence (Q9H228 whole entry) above
# S1P4 [9] = target: T2, S1P4; conditions: background statement; cited from earlier work
EC50 (S1P1 [1]),EC50 (S1P4 [2]),EC50 (S1P5 [3]),EC50 (S1P3 [4]),SMILES,Percent of Lymphocyte Depletion ([5]; 2 hours post treatment),Percent of Lymphocyte Depletion ([5]; 10 hours post treatment),Percent of Lymphocyte Depletion ([5]; 24 hours post treatment),also measured
0.69 nM,0.84 nM,0.62 nM,1.2 nM,"NC(CO)(CCc1ccc(OCCCC/C=C/I)cc1)COP(=O)(O)O (racemic) [Example B, (R/S)-phosphoric acid mono-{2-amino-2-hydroxymethyl-4-[4-((E)-6-iodo-hex-5-enyloxy)-phenyl]-butyl}ester]",–,–,–,–
1.3 nM,1.9 nM,1.1 nM,3 nM,"NC(CO)(CCc1ccc(OCCCC/C=C\I)cc1)COP(=O)(O)O (racemic) [Example D, (R/S)-phosphoric acid mono-{2-amino-2-hydroxymethyl-4-[4-((z)-6-iodo-hex-5-enyloxy)-phenyl]-butyl}ester]",–,–,–,–
1.6 nM,2.9 nM,1.4 nM,8.6 nM,"C=C(I)CCCCOc1ccc(CCC(N)(CO)COP(=O)(O)O)cc1 (racemic) [Example F, (R/S)-Phosphoric acid mono-{2-amino-2-hydroxymethyl-4-[4-(5-iodo-hex-5-enyloxy)-phenyl]-butyl}ester]",–,–,–,–
–,–,–,–,"C=C(I)CCCCOc1ccc(CCC(N)(CO)CO)cc1 [Example E, 2-Amino-2-{2-[4-(5-iodo-hex-5-enyloxy)-phenyl]-ethyl}-propane-1,3-diol HCl salt]",64%,82%,80%,–
–,–,–,–,"CCCCCCCCc1ccc(CCC(N)(CO)CO)cc1I [Example G, 2-Amino-2-[2-(3-iodo-4-octylphenyl)ethyl]-1,3-propandiol]",51%,88%,87%,–
–,–,–,–,"CCCCCCCCc1ccc(CCC(N)(CO)CO)c(I)c1 [Example H, 2-Amino-2-[2-(2-iodo-4-octylphenyl)ethyl]-1,3-propandiol]",67%,89%,89%,–
0.17 nM,4.9 nM,2 nM,84 nM,CCCCCCCCc1ccc(CC[C@](N)(CO)COP(=O)(O)O)cc1I [Example J],–,–,–,–
0.24 nM,7.1 nM,1.5 nM,46 nM,"CCCCCCCCc1ccc(CC[C@](N)(CO)COP(=O)(O)O)c(I)c1 [Example K, Phosphoric acid mono-{(S)-2-amino-2-hydroxymethyl-4-[2-(2-iodo-4-octylphenyl)butyl]}ester]",–,–,–,–
0.3 nM,–,0.7 nM,–,"CCCCCCCOc1ccc(CC[C@](N)(CO)COP(=O)(O)O)cc1I [Example L, Phosphoric acid mono-{(S)-2-amino-2-hydroxymethyl-4-[2-(3-iodo-4-(heptyloxy)phenyl)butyl]}ester]",–,–,–,–
–,–,–,–,"CCCCCCCCc1ccc(CCC(N)(CO)CO)cc1 [FTY720, 2-amino-2-[2-(4-octylphenyl)ethyl]propane-1,3-diol]",71%,86%,86%,affinity to S1P1 (S1P1 [6]): 0.3 nM; binding to S1P2 (S1P2): not; affinity to S1P3 (S1P3 [7]): 3.1 nM; affinity to S1P5 (S1P5 [8]): 0.3 nM; affinity to S1P4 (S1P4 [9]): 0.6 nM
